Columns and labels:
[1] = test system: ISC-enriched organoids; assay: Primary screen, 384-well 2.5-D organoid differentiation (ENR+CD, 6 days): basal lysozyme secretion (LYZ.NS); format: cell-based, murine; conditions: primary screen; for Dose.FC.LYZ.NS: FC vs plate median; for Z.LYZ.NS: standard z score; for SSMD.LYZ.NS: strictly standardized mean difference
From the text: (§1) High-throughput screening.

[2] = test system: ISC-enriched organoids; assay: Primary screen, 384-well 2.5-D organoid differentiation (ENR+CD, 6 days): carbachol-induced lysozyme secretion (LYZ.S); format: cell-based, murine; conditions: primary screen; for Dose.FC.LYZ.S: FC vs plate median; for Z.LYZ.S: standard z score; for SSMD.LYZ.S: strictly standardized mean difference
From the text: as §1

[3] = test system: ISC-enriched organoids; assay: Primary screen, 384-well 2.5-D organoid differentiation (ENR+CD, 6 days, Target Selective Inhibitor Library, vs whole-plate median): ATP (CellTiter-Glo 3D, CTG); conditions: primary screen; for Dose.FC.CTG: FC vs plate median; for Z.CTG: standard z score; for SSMD.CTG: strictly standardized mean difference
[4] = 1st of the 4 dose lines of the treatment (dose not given)
[5] = 2nd of the 4 dose lines of the treatment (dose not given)
[6] = 3rd of the 4 dose lines of the treatment (dose not given)
[7] = 4th of the 4 dose lines of the treatment (dose not given)

## CC(C)c1ccc(NC(=O)Cn2cnc3c2c(=O)n(C)c(=O)n3C)cc1 [HC-030031]
[1]; Dose 0.08 uM
  Dose.FC.LYZ.NS: 0.063 log 2 fold change
  Z.LYZ.NS: 0.547
[1]; Dose 0.40 uM
  Dose.FC.LYZ.NS: 0.033 log 2 fold change
  Z.LYZ.NS: 0.291
[1]; Dose 2.00 uM
  Dose.FC.LYZ.NS: −0.007 log 2 fold change
  Z.LYZ.NS: −0.057
[1]; Dose 10.00 uM
  Dose.FC.LYZ.NS: −0.047 log 2 fold change
  Z.LYZ.NS: −0.411
[1]; [4]
  SSMD.LYZ.NS: 0.506
[1]; [5]
  SSMD.LYZ.NS: 0.276
[1]; [6]
  SSMD.LYZ.NS: −0.048
[1]; [7]
  SSMD.LYZ.NS: −0.383
[2]; Dose 0.08 uM
  Dose.FC.LYZ.S: 0.090 log 2 fold change
[2]; Dose 0.40 uM
  Dose.FC.LYZ.S: 0.097 log 2 fold change
[2]; Dose 2.00 uM
  Dose.FC.LYZ.S: −0.035 log 2 fold change
[2]; Dose 10.00 uM
  Dose.FC.LYZ.S: 0.077 log 2 fold change
[2]; [4]
  Z.LYZ.S: 0.584
  SSMD.LYZ.S: 0.499
[2]; [5]
  Z.LYZ.S: 0.627
  SSMD.LYZ.S: 0.539
[2]; [6]
  Z.LYZ.S: −0.225
  SSMD.LYZ.S: −0.200
[2]; [7]
  Z.LYZ.S: 0.499
  SSMD.LYZ.S: 0.322
[3]; Dose 0.08 uM
  Dose.FC.CTG: 0.082 log 2 fold change
  Z.CTG: 0.195
[3]; Dose 0.40 uM
  Dose.FC.CTG: 0.191 log 2 fold change
  Z.CTG: 0.457
[3]; Dose 2.00 uM
  Dose.FC.CTG: −0.008 log 2 fold change
  Z.CTG: −0.019
[3]; Dose 10.00 uM
  Dose.FC.CTG: −0.241 log 2 fold change
  Z.CTG: −0.575
[3]; [4]
  SSMD.CTG: 0.200
[3]; [5]
  SSMD.CTG: 0.606
[3]; [6]
  SSMD.CTG: −0.025
[3]; [7]
  SSMD.CTG: −0.715

## O=C1[C@H](Cc2ccc(O)cc2)N2C(=O)CCN(C(=O)NCc3ccccc3)[C@H]2CN1Cc1cccc2ccccc12 [ICG-001]
[1]; Dose 0.08 uM
  Dose.FC.LYZ.NS: 0.037 log 2 fold change
  Z.LYZ.NS: 0.324
[1]; Dose 0.40 uM
  Dose.FC.LYZ.NS: 0.037 log 2 fold change
  Z.LYZ.NS: 0.321
[1]; Dose 2.00 uM
  Dose.FC.LYZ.NS: 0.045 log 2 fold change
  Z.LYZ.NS: 0.396
[1]; Dose 10.00 uM
  Dose.FC.LYZ.NS: −0.125 log 2 fold change
  Z.LYZ.NS: −1.093
[1]; [4]
  SSMD.LYZ.NS: 0.280
[1]; [5]
  SSMD.LYZ.NS: 0.339
[1]; [6]
  SSMD.LYZ.NS: 0.413
[1]; [7]
  SSMD.LYZ.NS: −1.162
[2]; Dose 0.08 uM
  Dose.FC.LYZ.S: 0.163 log 2 fold change
[2]; Dose 0.40 uM
  Dose.FC.LYZ.S: 0.204 log 2 fold change
[2]; Dose 2.00 uM
  Dose.FC.LYZ.S: 0.017 log 2 fold change
[2]; Dose 10.00 uM
  Dose.FC.LYZ.S: −0.124 log 2 fold change
[2]; [4]
  Z.LYZ.S: 1.054
  SSMD.LYZ.S: 0.711
[2]; [5]
  Z.LYZ.S: 1.318
  SSMD.LYZ.S: 0.796
[2]; [6]
  Z.LYZ.S: 0.109
  SSMD.LYZ.S: 0.122
[2]; [7]
  Z.LYZ.S: −0.802
  SSMD.LYZ.S: −0.824
[3]; Dose 0.08 uM
  Dose.FC.CTG: 0.104 log 2 fold change
  Z.CTG: 0.249
[3]; Dose 0.40 uM
  Dose.FC.CTG: 0.104 log 2 fold change
  Z.CTG: 0.248
[3]; Dose 2.00 uM
  Dose.FC.CTG: 0.143 log 2 fold change
  Z.CTG: 0.343
[3]; Dose 10.00 uM
  Dose.FC.CTG: −0.416 log 2 fold change
  Z.CTG: −0.993
[3]; [4]
  SSMD.CTG: 0.298
[3]; [5]
  SSMD.CTG: 0.360
[3]; [6]
  SSMD.CTG: 0.530
[3]; [7]
  SSMD.CTG: −0.731

## O=C(c1ccc(Nc2nccc(-c3cc4ccccc4s3)n2)cc1)N1CCC(N2CCCC2)CC1 [IKK-16 (IKK Inhibitor VII)]
[1]; Dose 0.08 uM
  Dose.FC.LYZ.NS: 0.104 log 2 fold change
  Z.LYZ.NS: 0.903
[1]; Dose 0.40 uM
  Dose.FC.LYZ.NS: 0.020 log 2 fold change
  Z.LYZ.NS: 0.176
[1]; Dose 2.00 uM
  Dose.FC.LYZ.NS: −0.081 log 2 fold change
  Z.LYZ.NS: −0.708
[1]; Dose 10.00 uM
  Dose.FC.LYZ.NS: −0.291 log 2 fold change
  Z.LYZ.NS: −2.531
[1]; [4]
  SSMD.LYZ.NS: 0.817
[1]; [5]
  SSMD.LYZ.NS: 0.207
[1]; [6]
  SSMD.LYZ.NS: −0.481
[1]; [7]
  SSMD.LYZ.NS: −2.119
[2]; Dose 0.08 uM
  Dose.FC.LYZ.S: 0.092 log 2 fold change
[2]; Dose 0.40 uM
  Dose.FC.LYZ.S: 0.028 log 2 fold change
[2]; Dose 2.00 uM
  Dose.FC.LYZ.S: −0.142 log 2 fold change
[2]; Dose 10.00 uM
  Dose.FC.LYZ.S: −0.383 log 2 fold change
[2]; [4]
  Z.LYZ.S: 0.593
  SSMD.LYZ.S: 0.496
[2]; [5]
  Z.LYZ.S: 0.179
  SSMD.LYZ.S: 0.203
[2]; [6]
  Z.LYZ.S: −0.918
  SSMD.LYZ.S: −0.698
[2]; [7]
  Z.LYZ.S: −2.475
  SSMD.LYZ.S: −1.351
[3]; Dose 0.08 uM
  Dose.FC.CTG: 0.058 log 2 fold change
  Z.CTG: 0.139
[3]; Dose 0.40 uM
  Dose.FC.CTG: −0.051 log 2 fold change
  Z.CTG: −0.122
[3]; Dose 2.00 uM
  Dose.FC.CTG: −0.431 log 2 fold change
  Z.CTG: −1.029
[3]; Dose 10.00 uM
  Dose.FC.CTG: −0.950 log 2 fold change
  Z.CTG: −2.268
[3]; [4]
  SSMD.CTG: 0.131
[3]; [5]
  SSMD.CTG: −0.190
[3]; [6]
  SSMD.CTG: −0.877
[3]; [7]
  SSMD.CTG: −1.581

— patent US20230398130A1, “METHODS AND COMPOSITIONS FOR DIFFERENTIATING STEM CELLS” (Massachusetts Institute of Technology, priority 2020, published 2023)
